Results as given in patent publication US11471434B2, “Treatment for migraine” (INTRABIO LTD., priority 2017, dated 2022).

Tests used:
[1] = test system: NPC Chinese Hamster Ovary (CHO) cells; assay: Relative lysosomal volume via LysoTracker in NPC CHO cells; type: cell-based; conditions: 1 mM, 72 hours, p <0.01 versus untreated NPC1-null, FIG. 1
Experimental: NPC Chinese Hamster Ovary (CHO) cells were treated in vitro for 72 hours with 1 mM of acetyl-DL-leucine, acetyl-L-leucine, acetyl-D-leucine, DL-leucine, L-leucine, and D-leucine, respectively. Relative lysosomal volume was quantified via LysoTracker.
Data presented in FIG. 1 show the results for each treatment, with lysosomal volume expressed as fold change relative to untreated wild-type […]. The asterisks (**) indicate a p-values of <0.01 versus untreated NPC1-null.

[2] = test system: Migraine and Vestibular Migraine; assay: Case study Example 4: Tanganil for migraine and vestibular migraine; type: in vivo, human; conditions: before treatment with Tanganil
Description: Patient Details: • Sex: […] • Six tablets of Tanganil® per day: two in the morning, two at noon and two in the evening for one week; thereafter, ten tablets of Tanganil® per day: four in the morning, three at noon and three in the evening. Tanganil® tablets as described in Example 1.

Migraine with Aura = assay: Case study Example 3: Tanganil for migraine with aura; type: in vivo, human; conditions: 600 mg taken once a week; before treatment with Tanganil
[3] = test system: acute unilateral labyrinthectomy; conditions: rat, by activation of the vestibulo-cerebellum and deactivation of the posterolateral thalamus (Gunther 2015); cited from earlier work
cerebellar ataxia = conditions: patients with cerebellar ataxia (Schniepp 2015); cited from earlier work
[4] = test system: Niemann-Pick Type C (NPC); conditions: 12 patients with NPC (Bremova 2015); cited from earlier work
vertigo = conditions: cited from earlier work
[5] = test system: ataxia of different etiologies; conditions: patients with ataxia, responders (Becker-Bense 2015); cited from earlier work
cerebellar symptoms = conditions: cited from earlier work

| Compound | lysosomal volume (LysoTracker), fold change relative to untreated wild-type [1] | improvement of attacks of migraine headache with pain medication [2] | also measured |
| --- | --- | --- | --- |
| CC(=O)N[C@H](CC(C)C)C(=O)O [acetyl-D-leucine] | significantly reduced | – | – |
| CC(=O)Oc1ccccc1C(=O)O [Aspirin] | – | no improvement | – |
| CC(C)CC(N)C(=O)O (racemic) [DL-leucine] | significantly reduced | – | – |
| CC(C)C[C@H](N)C(=O)O [L-leucine] | significantly reduced | – | – |
| CC(C)C[C@@H](N)C(=O)O [D-leucine] | significantly reduced | – | – |
| CC(C)Cc1ccc(C(C)C(=O)O)cc1 (stereo not drawn) [Ibuprofen] | – | no improvement | response of headache attacks (Migraine with Aura): responding |
| CC(=O)N[C@@H](CC(C)C)C(=O)O [acetyl-L-leucine] | significantly reduced | – | effect on postural compensation [3]: significant effect |
| CC(=O)NC(CC(C)C)C(=O)O (racemic) [acetyl-DL-leucine] | significantly reduced | – | gait variability (cerebellar ataxia): improves gait variability; ataxia [4]: significant improvement in ataxia; cases with improvement in vertigo symptomology (vertigo; clinical results reported by various authors, including disappearance of vertigo attacks): more than 95 % of cases; safety profile (vertigo; used in France to treat acute vertigo since 1957): excellent safety profile; brain metabolism (PET) [5]: increased metabolism in the midbrain and lower brainstem; benefit in cerebellar patients (cerebellar symptoms; another case series (Pelz 2015)): did not find benefit; cerebellar symptoms (cerebellar symptoms; case series (Strupp 2013)): improvement of cerebellar symptoms |
| Cc1c(N(C)CS(=O)(=O)[O-])c(=O)n(-c2ccccc2)n1C.[Na+] [Novalgin] | – | improvement | – |
